Results as given in patent publication US20060058286A1, “Methods of treating HIV infection” (priority 2004, published 2006).

Tests used:
[1] = system: HIV-1 NL4-3; assay: microbe, parasite or virus in culture
Description: (§1) Virus and cell lines. The T-cell line, MT-2 was obtained through the AIDS Research and Reference Reagent Program, NIAID and was contributed by Dr. D. Richman. The cell line was cultured in RPMI 1640 medium supplemented with 10% fetal bovine serum, 2 mM L-glutamine and sub-cultured twice a week. The NL4-3 strain of HIV-1 was obtained from the AIDS Research and Reference Reagent Program. Both virus stocks were amplified and titered in MT-2 cells using a virus infectivity assay.
(§2) Drug Susceptibility and Cytotoxicity Assays. For drug susceptibility assays, MT-2 cells were infected with HIV-1 NL4-3 at an MOI of 0.001, and seeded into 96-well microtiter plates (2.5×10^5 cells/ml) containing serial dilutions of test compounds. […] Each drug ratio consisted of an array of 3-fold serial dilutions, and was performed in quadruplicate. The plates were incubated at 37° C./5% CO2. The MT-2 cells infected with HIV-1 NL4-3 were incubated for 5 days. On day-five post-infection, 20 μl from each well was harvested and quantitated by a reverse transcriptase (RT) assay or an MTS assay. Cytotoxicity assays were performed using uninfected cells, exposed to the same drug combinations, and incubated for five days. Cell viability was determined by an XTT assay. The CC50 values were calculated by using the exponential form of the median effect equation as mentioned below for calculation of EC50.
(§3) In this equation, Fa stands for “fraction affected,” and represents the fraction of the viral load that has been inactivated.
In carrying out the combination experiments below, the EC50 for Compound 1 and each comparator compound was determined during the course of each study, and used in the subsequent data analysis.

[2] = system: HIV-1 NL4-3; assay: Two-drug combination study with Compound 1 (combination indices); assay type: cell-based; details: for Combination Indices at 50% HIV Inhibition (Confidence Interval) / Combination Indices at 75% HIV Inhibition (Confidence Interval) / Combination Indices at 90% HIV Inhibition (Confidence Interval): 95% CI in parentheses; for Overall Result: overall antiviral effect of the two-drug combination with Compound 1, all ratios and effective levels
Description: as §1, §2
Analysis of Drug Combination Effects. For determination of CI values, drugs were diluted in a fixed ratio and multiple ratios were analyzed. The drug serial dilutions spanned a range of concentrations near the EC50 value of each compound, so that equivalent antiviral activities could be compared. Concentration-response curves were estimated for each individual drug and every combination using the median-effect equation. The equation was fit using a nonlinear regression routine (Proc Nlin) in PC SAS version 8.01 (SAS Institute Inc., SAS Version 8.01, Cary, N.C.: SAS Institute Inc., 1990).
as §3
To assess antiviral effects of different drug combination treatments, combination indices (CIs) were calculated according to Chou and Rideout. The combination index was computed as CI=[D]1/[Dm]1+[D]2/[Dm]2
In this equation [Dm]1 and [Dm]2 are the concentrations of drugs that would individually produce a specific level of effect, while [D]1 and [D]2 are the concentrations of drugs in combination that would produce the same level of effect.
Theoretically, additivity is implied if the CI is equal to one, synergy if the CI is less than one, and antagonism if the CI is greater than one. […] At best, we can construct a range that contains the likely values for the CI, given the noise in the data. In this report, these ranges are reported in parentheses next to each point estimate of the CI. […] If the range fell entirely above 1.0, we would infer antagonistic behavior. If the range were to include 1.0, we would infer additivity.

[3] = Human immunodeficiency virus 1, NL43, MT2, 120 h
[4] = combination with Compound 1, EC50 ratio 1:1 (Compound 1:comparator)
[5] = combination with Compound 1, EC50 ratio 1:2.5 (Compound 1:comparator)
[6] = combination with Compound 1, EC50 ratio 2.5:1 (Compound 1:comparator)

| Compound | EC50 [1, 3] | Combination Indices at 50% HIV Inhibition (Confidence Interval) [2, 4] | Combination Indices at 75% HIV Inhibition (Confidence Interval) [2, 4] | Combination Indices at 90% HIV Inhibition (Confidence Interval) [2, 4] | Combination Indices at 50% HIV Inhibition (Confidence Interval) [2, 5] | Combination Indices at 75% HIV Inhibition (Confidence Interval) [2, 5] | Combination Indices at 90% HIV Inhibition (Confidence Interval) [2, 5] | Combination Indices at 50% HIV Inhibition (Confidence Interval) [2, 6] | Combination Indices at 75% HIV Inhibition (Confidence Interval) [2, 6] | Combination Indices at 90% HIV Inhibition (Confidence Interval) [2, 6] | Overall Result [2] | Overall Result ([2]; listed as delavirdine) | Overall Result ([2]; listed as zidovudine) | Overall Result ([2]; listed as emtricitibine) | EC50 ([1]; NL4-3) | Overall Result ([2]; listed as T-20) | combination effect at the 50% effective level ([2]; combination with Compound 1) | combination effect at the 75% and 90% effective levels ([2]; combination with Compound 1) | Overall Result ([2]; listed as didanosine) | Overall Result ([2]; listed as zalcitabine) |
| --- | --- | --- | --- | --- | --- | --- | --- | --- | --- | --- | --- | --- | --- | --- | --- | --- | --- | --- | --- | --- |
| CC(C)Nc1cccnc1N1CCN(C(=O)c2cc3cc(NS(C)(=O)=O)ccc3[nH]2)CC1 [Delavirdine, delavirdine] | 0.05 µM | 0.64 (0.50, 0.78) | 0.59 (0.41, 0.78) | 0.58 (0.30, 0.85) | 0.56 (0.47, 0.64) | 0.41 (0.32, 0.50) | 0.31 (0.20, 0.41) | 0.52 (0.44, 0.60) | 0.44 (0.34, 0.54) | 0.39 (0.26, 0.53) | Synergistic | strong synergistic effects | – | – | – | – | – | – | – | – |
| Cc1cn([C@H]2C[C@H](N=[N+]=[N-])[C@@H](CO)O2)c(=O)[nH]c1=O [Zidovudine, zidovudine] | 0.002 µM | 0.21 (0.16, 0.26) | 0.15 (0.10, 0.20) | 0.12 (0.06, 0.18) | 0.33 (0.26, 0.40) | 0.23 (0.16, 0.29) | 0.16 (0.09, 0.24) | 0.21 (0.18, 0.24) | 0.16 (0.12, 0.19) | 0.13 (0.08, 0.17) | Synergistic | – | synergistic | – | – | – | – | – | – | – |
| Nc1nc(=O)n([C@@H]2CS[C@H](CO)O2)cc1F [Emtricitabine, emtricitabine] | 0.11 µM | 0.52 (0.44, 0.59) | 0.40 (0.32, 0.48) | 0.32 (0.22, 0.41) | 0.74 (0.63, 0.84) | 0.64 (0.52, 0.77) | 0.57 (0.39, 0.75) | 0.49 (0.42, 0.56) | 0.34 (0.28, 0.41) | 0.25 (0.17, 0.33) | Synergistic | – | – | synergistic | – | – | – | – | – | – |
| enfuvirtide | – | 0.74 (0.58, 0.89) | 0.95 (0.67, 1.24) | 1.25 (0.66, 1.83) | 0.72 (0.55, 0.89) | 0.69 (0.46, 0.91) | 0.68 (0.33, 1.02) | 1.04 (0.82, 1.27) | 0.95 (0.66, 1.24) | 0.87 (0.45, 1.29) | Additive- | – | – | – | 0.007 µM | synergistic to additive | – | – | – | – |
| Nc1nc(NC2CC2)c2ncn([C@H]3C=C[C@@H](CO)C3)c2n1 [Abacavir, abacavir] | 0.74 µM | 0.66 (0.48, 0.84) | 0.89 (0.55, 1.91) | 1.20 (0.48, 1.91) | 0.58 (0.45, 0.71) | 0.92 (0.62, 1.21) | 1.46 (0.72, 2.20) | 0.65 (0.44, 0.86) | 0.88 (0.49, 1.28) | 1.20 (0.36, 2.05) | Additive | – | – | – | – | – | synergy | additivity | – | – |
| O=c1[nH]cnc2c1ncn2[C@H]1CC[C@@H](CO)O1 [Didanosine, didanosine] | 0.27 µM | 0.20 (0.14, 0.25) | 0.27 (0.17, 0.37) | 0.40 (0.16, 0.64) | 0.16 (0.12, 0.20) | 0.21 (0.14, 0.28) | 0.31 (0.13, 0.49) | 0.31 (0.27, 0.36) | 0.32 (0.26, 0.39) | 0.35 (0.23, 0.47) | Synergistic | – | – | – | – | – | – | – | synergistic | – |
| Nc1ccn([C@H]2CC[C@@H](CO)O2)c(=O)n1 [Zalcitabine, zalcitabine] | 0.12 µM | 0.79 (0.64, 0.94) | 0.75 (0.55, 0.96) | 0.72 (0.42, 1.02) | 0.83 (0.70, 0.95) | 0.70 (0.56, 0.85) | 0.60 (0.41, 0.80) | 0.85 (0.75, 0.95) | 0.72 (0.61, 0.84) | 0.61 (0.46, 0.77) | Synergistic | – | – | – | – | – | – | – | – | synergistic |
